According to ChEMBL document CHEMBL4507268 (2021):

Tests used:
Conditions in all cases: Compound concentration 1000.0 nM
[1] = tested on: Tyrosine-protein kinase ABL1 (Homo sapiens), P00519 [Y253F]
[2] = biological target: T1, Serine/threonine-protein kinase BRSK1 (Homo sapiens) (UniProt Q8TDC3)
T1 sequence (whole entry): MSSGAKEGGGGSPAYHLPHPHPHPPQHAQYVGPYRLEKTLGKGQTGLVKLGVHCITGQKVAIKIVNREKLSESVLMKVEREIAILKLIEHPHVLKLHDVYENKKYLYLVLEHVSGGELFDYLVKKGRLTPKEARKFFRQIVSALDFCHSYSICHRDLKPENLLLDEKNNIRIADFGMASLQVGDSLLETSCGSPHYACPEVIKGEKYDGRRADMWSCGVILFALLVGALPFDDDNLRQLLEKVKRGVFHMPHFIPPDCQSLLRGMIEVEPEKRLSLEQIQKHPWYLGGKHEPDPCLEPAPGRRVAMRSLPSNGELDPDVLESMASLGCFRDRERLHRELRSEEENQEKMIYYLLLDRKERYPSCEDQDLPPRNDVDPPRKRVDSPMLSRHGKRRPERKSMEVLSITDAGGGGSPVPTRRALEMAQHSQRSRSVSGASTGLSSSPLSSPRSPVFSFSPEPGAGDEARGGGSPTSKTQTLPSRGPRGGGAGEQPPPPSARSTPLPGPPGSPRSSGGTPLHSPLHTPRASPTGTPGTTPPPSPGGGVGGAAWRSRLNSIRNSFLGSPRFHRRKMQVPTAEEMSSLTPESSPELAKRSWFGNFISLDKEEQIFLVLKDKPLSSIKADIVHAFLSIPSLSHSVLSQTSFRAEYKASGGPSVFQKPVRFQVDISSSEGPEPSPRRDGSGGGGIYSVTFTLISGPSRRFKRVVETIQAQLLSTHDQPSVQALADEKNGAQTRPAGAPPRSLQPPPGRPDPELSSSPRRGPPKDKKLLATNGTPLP

[3] = biological target: Calcium/calmodulin-dependent protein kinase kinase 1 (Homo sapiens) (UniProt Q8N5S9)
[4] = biological target: Interleukin-1 receptor-associated kinase 1 (Homo sapiens) (UniProt P51617)
[5] = biological target: Tyrosine-protein kinase Lyn (Homo sapiens) (UniProt P07948)
[6] = biological target: MAP/microtubule affinity-regulating kinase 3 (Homo sapiens) (UniProt P27448)
[7] = biological target: Dual specificity mitogen-activated protein kinase kinase 5 (Homo sapiens) (UniProt Q13163)
[8] = biological target: Serine/threonine-protein kinase 38 (Homo sapiens) (UniProt Q15208)
[9] = biological target: Mitogen-activated protein kinase kinase kinase 14 (Homo sapiens) (UniProt Q99558)
[10] = biological target: Serine/threonine-protein kinase PAK 3 (Homo sapiens) (UniProt O75914)
[11] = biological target: Platelet-derived growth factor receptor alpha (Homo sapiens) (UniProt P16234)
[12] = biological target: Cyclin-dependent kinase 14 (Homo sapiens) (UniProt O94921)
[13] = biological target: T2, TGF-beta receptor type-1 (Homo sapiens) (UniProt P36897)
T2 sequence (whole entry): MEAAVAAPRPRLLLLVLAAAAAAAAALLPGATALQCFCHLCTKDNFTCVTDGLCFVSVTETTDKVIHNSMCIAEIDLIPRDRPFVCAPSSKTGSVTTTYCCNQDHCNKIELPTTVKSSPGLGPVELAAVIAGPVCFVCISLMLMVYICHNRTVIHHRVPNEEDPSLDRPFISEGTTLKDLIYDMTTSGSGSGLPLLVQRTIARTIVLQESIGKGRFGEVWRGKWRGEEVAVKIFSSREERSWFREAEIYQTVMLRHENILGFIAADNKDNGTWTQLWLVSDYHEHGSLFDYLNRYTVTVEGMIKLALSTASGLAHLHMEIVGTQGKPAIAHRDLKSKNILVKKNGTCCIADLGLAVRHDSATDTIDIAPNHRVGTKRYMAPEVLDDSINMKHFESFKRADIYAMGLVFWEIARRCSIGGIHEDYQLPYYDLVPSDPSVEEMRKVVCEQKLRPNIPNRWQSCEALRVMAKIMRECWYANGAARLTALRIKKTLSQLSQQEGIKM

[14] = biological target: T3, Serine/threonine-protein kinase ULK2 (Homo sapiens) (UniProt Q8IYT8)
T3 sequence (whole entry): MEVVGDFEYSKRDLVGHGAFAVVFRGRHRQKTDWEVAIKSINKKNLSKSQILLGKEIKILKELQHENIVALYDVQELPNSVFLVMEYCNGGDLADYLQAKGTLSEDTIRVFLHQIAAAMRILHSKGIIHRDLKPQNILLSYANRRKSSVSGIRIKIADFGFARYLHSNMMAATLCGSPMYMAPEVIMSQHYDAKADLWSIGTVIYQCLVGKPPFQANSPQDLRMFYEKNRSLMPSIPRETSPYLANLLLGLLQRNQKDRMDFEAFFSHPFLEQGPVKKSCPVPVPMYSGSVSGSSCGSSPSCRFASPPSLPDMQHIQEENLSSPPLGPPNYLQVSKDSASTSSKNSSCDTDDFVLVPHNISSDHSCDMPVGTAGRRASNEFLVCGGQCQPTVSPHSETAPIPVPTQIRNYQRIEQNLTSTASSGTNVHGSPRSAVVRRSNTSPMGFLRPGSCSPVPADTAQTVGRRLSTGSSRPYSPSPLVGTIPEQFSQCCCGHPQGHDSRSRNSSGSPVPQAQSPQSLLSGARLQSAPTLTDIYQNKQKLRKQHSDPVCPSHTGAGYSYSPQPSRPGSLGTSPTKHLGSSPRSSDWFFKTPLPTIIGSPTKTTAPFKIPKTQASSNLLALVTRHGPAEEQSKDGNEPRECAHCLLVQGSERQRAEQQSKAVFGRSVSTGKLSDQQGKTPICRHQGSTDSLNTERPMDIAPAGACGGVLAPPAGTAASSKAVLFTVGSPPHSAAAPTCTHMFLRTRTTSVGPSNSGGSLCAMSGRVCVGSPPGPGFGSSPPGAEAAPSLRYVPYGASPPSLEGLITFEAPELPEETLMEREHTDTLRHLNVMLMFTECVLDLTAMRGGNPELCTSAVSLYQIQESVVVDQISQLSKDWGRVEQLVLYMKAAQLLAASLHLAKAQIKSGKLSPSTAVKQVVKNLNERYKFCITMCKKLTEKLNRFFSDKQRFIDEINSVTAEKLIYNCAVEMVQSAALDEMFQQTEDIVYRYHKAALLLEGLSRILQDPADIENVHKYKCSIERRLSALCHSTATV

Measured: residual activity

Chain of Tyrosine-protein kinase Lyn (Homo sapiens) (P07948 2-512 limits assumed): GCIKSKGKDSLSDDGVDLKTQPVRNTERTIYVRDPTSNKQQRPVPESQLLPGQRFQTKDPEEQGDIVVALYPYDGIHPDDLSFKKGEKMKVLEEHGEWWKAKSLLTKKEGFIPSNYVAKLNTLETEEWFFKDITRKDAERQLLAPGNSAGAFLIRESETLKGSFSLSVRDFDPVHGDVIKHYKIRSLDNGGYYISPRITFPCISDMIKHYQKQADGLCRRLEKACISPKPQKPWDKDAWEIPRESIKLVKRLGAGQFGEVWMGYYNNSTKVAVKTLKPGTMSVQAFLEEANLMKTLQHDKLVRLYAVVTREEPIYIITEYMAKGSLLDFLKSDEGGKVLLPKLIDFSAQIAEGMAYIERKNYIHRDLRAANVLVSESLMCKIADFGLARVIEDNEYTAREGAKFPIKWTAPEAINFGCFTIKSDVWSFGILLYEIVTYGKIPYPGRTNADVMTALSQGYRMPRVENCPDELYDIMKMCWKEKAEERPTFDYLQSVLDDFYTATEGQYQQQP
Chain of Serine/threonine-protein kinase 38 (Homo sapiens) (Q15208 2-465 limits assumed): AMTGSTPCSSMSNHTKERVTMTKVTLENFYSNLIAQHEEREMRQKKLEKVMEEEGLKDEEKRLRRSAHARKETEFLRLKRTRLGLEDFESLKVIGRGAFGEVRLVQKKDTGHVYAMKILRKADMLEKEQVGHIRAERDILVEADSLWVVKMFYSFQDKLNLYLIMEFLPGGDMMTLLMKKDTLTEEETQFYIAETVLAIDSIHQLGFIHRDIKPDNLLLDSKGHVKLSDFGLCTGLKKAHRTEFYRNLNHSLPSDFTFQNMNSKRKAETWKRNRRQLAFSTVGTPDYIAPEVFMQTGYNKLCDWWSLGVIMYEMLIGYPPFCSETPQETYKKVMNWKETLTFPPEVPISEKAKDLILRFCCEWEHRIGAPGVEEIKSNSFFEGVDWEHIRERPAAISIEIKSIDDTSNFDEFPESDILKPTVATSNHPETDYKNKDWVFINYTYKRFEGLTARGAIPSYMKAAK
Chain of Dual specificity mitogen-activated protein kinase kinase 5 (Homo sapiens) (Q13163 whole entry): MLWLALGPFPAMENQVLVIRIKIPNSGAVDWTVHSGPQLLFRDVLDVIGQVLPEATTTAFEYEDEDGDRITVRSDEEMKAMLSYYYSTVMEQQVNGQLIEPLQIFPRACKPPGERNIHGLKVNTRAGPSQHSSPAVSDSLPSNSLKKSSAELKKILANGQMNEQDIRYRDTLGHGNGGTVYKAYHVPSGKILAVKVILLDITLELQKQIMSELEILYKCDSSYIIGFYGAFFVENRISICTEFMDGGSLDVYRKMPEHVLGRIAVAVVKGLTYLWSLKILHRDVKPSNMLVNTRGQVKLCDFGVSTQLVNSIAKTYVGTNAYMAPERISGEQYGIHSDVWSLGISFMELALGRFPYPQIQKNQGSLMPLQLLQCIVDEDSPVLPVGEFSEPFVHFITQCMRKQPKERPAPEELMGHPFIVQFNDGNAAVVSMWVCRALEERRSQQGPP
Chain of Mitogen-activated protein kinase kinase kinase 14 (Homo sapiens) (Q99558 whole entry, looked up): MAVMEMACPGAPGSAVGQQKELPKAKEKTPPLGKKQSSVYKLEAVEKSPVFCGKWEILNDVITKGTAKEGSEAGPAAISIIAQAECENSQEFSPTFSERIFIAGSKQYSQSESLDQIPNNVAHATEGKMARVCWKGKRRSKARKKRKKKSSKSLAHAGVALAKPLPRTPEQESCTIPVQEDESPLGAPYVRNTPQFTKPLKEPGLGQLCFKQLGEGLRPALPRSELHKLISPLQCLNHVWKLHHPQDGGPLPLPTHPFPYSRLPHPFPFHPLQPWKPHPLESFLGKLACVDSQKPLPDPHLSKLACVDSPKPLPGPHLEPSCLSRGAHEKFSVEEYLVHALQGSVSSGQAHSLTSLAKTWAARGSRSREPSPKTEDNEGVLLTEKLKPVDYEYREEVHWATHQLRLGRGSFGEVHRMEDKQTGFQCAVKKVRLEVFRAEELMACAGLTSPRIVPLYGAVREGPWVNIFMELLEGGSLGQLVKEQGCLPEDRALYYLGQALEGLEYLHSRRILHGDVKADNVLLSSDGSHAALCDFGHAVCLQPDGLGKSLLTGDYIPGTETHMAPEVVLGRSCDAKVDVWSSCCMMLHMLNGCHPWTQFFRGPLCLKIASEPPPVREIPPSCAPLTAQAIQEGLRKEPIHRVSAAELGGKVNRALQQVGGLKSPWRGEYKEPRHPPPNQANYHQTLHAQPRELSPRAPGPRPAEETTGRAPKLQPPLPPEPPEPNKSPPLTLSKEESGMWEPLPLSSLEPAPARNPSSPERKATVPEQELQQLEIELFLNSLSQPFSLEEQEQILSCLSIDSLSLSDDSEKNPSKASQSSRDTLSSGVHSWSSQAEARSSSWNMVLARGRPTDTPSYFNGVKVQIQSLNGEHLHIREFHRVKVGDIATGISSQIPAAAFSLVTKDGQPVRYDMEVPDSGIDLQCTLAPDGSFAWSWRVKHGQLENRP
Chain of Cyclin-dependent kinase 14 (Homo sapiens) (O94921 whole entry): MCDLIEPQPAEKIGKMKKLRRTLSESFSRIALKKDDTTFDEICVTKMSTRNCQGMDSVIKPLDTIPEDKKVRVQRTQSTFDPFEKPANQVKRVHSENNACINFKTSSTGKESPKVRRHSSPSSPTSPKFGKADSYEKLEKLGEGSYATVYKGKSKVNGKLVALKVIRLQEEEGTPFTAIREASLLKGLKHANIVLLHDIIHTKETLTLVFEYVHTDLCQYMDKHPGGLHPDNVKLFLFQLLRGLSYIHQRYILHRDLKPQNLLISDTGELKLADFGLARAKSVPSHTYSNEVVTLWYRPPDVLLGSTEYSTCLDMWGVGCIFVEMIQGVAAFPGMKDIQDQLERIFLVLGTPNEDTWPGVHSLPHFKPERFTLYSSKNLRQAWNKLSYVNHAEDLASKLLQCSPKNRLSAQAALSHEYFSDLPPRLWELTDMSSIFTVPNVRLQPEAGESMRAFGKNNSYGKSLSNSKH
Chain of Calcium/calmodulin-dependent protein kinase kinase 1 (Homo sapiens) (Q8N5S9 whole entry, looked up): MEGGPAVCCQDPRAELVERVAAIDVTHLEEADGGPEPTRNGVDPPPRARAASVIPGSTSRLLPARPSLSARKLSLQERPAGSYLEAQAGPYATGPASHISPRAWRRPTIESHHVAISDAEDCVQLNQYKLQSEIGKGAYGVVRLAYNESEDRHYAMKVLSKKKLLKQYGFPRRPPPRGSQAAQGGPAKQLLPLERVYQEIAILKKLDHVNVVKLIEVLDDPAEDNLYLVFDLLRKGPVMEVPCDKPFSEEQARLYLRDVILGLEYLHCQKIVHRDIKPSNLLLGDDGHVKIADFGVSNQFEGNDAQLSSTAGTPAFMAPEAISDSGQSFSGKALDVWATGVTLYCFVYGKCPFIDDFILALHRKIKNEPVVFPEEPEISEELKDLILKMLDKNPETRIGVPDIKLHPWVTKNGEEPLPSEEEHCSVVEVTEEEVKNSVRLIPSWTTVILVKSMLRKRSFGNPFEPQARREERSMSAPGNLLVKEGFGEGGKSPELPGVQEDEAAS
Chain of Interleukin-1 receptor-associated kinase 1 (Homo sapiens) (P51617 whole entry, looked up): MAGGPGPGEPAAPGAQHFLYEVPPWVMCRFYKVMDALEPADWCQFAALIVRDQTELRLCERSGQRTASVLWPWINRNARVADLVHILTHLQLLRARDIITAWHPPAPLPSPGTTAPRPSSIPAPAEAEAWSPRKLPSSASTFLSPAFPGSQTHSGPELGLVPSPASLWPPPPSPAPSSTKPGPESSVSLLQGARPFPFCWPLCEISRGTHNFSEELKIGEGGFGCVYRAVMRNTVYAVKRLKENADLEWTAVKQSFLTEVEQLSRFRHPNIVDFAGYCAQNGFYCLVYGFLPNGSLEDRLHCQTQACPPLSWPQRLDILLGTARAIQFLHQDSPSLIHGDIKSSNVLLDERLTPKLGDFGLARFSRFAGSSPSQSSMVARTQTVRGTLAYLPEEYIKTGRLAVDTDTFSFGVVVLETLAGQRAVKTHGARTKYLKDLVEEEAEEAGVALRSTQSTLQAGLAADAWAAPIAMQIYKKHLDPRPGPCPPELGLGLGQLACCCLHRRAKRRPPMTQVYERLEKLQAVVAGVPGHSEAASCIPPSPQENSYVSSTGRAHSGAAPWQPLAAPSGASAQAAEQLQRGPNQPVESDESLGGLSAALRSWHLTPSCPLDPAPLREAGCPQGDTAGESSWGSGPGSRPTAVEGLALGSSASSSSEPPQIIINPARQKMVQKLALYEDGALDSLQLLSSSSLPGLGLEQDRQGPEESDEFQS
Chain of Serine/threonine-protein kinase PAK 3 (Homo sapiens) (O75914 whole entry, looked up): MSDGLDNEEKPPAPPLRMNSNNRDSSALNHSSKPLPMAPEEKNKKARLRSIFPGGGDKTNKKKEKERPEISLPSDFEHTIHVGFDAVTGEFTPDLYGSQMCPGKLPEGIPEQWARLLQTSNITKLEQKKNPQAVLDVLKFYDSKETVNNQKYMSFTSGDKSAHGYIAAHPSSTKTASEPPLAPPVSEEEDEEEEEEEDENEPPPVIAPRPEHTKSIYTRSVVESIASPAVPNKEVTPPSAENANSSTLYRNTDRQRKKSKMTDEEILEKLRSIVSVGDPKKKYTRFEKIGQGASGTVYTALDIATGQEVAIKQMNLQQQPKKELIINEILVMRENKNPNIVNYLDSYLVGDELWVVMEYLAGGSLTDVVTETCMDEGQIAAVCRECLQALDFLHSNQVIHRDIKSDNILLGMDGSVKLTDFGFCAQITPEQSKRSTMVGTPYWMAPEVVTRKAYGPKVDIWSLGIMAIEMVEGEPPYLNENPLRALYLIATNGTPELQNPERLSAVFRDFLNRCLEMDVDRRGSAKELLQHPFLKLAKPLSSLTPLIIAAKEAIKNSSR

Cc1nc(C2CCN(C(=O)c3ccc(OC(F)(F)F)cc3N)CC2)c2ncc(N3CCN(C)CC3)cc2n1 [BAY-693]
inactive: [1] 98% | [2] 100% | [3] 100% | [4] 100% | [5] 100% | [6] 89% | [7] 83% | [8] 94% | [9] 100% | [10] 100% | [11] 100% | [12] 100% | [13] 80% | [14] 100%

CN1CCN(c2cnc3c(C4CCN(C(=O)c5ccc(OC(F)(F)F)cc5N)CC4)ncnc3c2)CC1 [BAY-885]
inactive: [1] 100% | [2] 100% | [3] 100% | [4] 100% | [5] 75% | [6] 93% | [7] 86% | [8] 80% | [9] 100% | [10] 88% | [11] 100% | [12] 100% | [13] 90% | [14] 100%
